From ChEMBL document CHEMBL1641556, “MDCK cell permeability characteristics of a sulfenamide prodrug: strategic implications in considering sulfenamide prodrugs for oral delivery of NH-acids” (Bioorg Med Chem Lett, 2011)

Assays:
[1] = Hydrolytic stability of the compound assessed as half life at pH 6; assay type: physicochemical; settings: buffer
[2] = Apparent permeability from basolateral to apical side of MDCK cells; assay type: ADME, cell-based, Canis lupus familiaris; settings: dog
[3] = Apparent permeability from apical to basolateral side of MDCK cells; assay type: ADME, cell-based, Canis lupus familiaris; settings: dog

| t1/2 [1] | Papp B→A [2] | Papp A→B [3] | Compound |
| --- | --- | --- | --- |
| 6.3 yr |  |  | N[C@@H](CSNC(=O)c1ccccc1)C(=O)O |
|  | 10.6 ×10⁻⁶ cm/s | 9 ×10⁻⁶ cm/s | CC(=O)NC[C@H]1CN(c2ccc(N3CCOCC3)c(F)c2)C(=O)O1 [LINEZOLID] |
